From US20040248825A1, “Use of neuraminidase inhibitors to prevent flu associated bacterial infections” (St. Jude Children's Research Hospital, priority 2001, published 2004)
“Also recorded” adds a separate entry of the source. Read-outs that look alike come from different tables or passages of the source.

Tests used:
[1] = cited from earlier work
[2] = system: influenza A/PR/8/34 (H1N1) followed by S. pneumoniae D39; experiment: Treatment study: sequential dual infection, oseltamivir begun 48 hours after influenza infection, pneumococcal challenge on day 7; type: in vivo, Balb/cByJ mice; conditions: for Survival (Mantel-Cox Chi-Squared test on Kaplan-Meier survival data): oseltamivir 10 mg/kg/day BID begun 48 h after influenza, until D39 challenge on day 7, p<0.01 vs water control; for Mean viral lung titer / Weight Loss (% of Baseline) / Mean bacterial lung titer: treatment study; for Mean bacterial lung titer: day 8, 24 hours after pneumococcal challenge
[3] = system: influenza A/PR/8/34 (H1N1) followed by S. pneumoniae D39; experiment: Chemoprophylaxis study: mice infected with influenza virus on day 0, oseltamivir begun 4 hours before infection, pneumococcal challenge on day 7; type: in vivo, Balb/cByJ mice; conditions: for Weight Loss (% of Baseline) / Mean viral lung titer: prophylaxis study

CC(=O)N[C@H]1[C@H]([C@H](O)[C@H](O)CO)OC(C(=O)O)=C[C@@H]1N=C(N)N [Zanamivir, zanamivir]
Fraction of inhaled drug that reaches the lungs ([1]; dry powder for inhalation): approx. 20%
Gastrointestinal absorption ([1]; in vivo): poorly absorbed
Half-life ([1]; in vivo): 2.5 to 5 h

CCOC(=O)C1=C[C@@H](OC(CC)CC)[C@H](NC(C)=O)[C@@H](N)C1 [oseltamivir, oseltamivir phosphate]
Half-life ([1]; oral): 6 to 10 h
Systemic bioavailability ([1]; oral): 80%
Lung histopathology ([2]; lung tissue on day 8, untreated controls: diffuse, severe infection disseminated throughout both lungs): lobar bronchopneumonia infection that is confined to defined regions of the lungs
Survival (Mantel-Cox Chi-Squared test on Kaplan-Meier survival data) [2]: significantly prolonged
Survival (Mantel-Cox Chi-Squared test on Kaplan-Meier survival data) ([2]; listed as Oseltamivir): prolongs survival
Median survival ([2]; oseltamivir group of the treatment study, control 1 day): 5 days
Weight lost by surviving mice, % of their day 7 weight ([2]; treatment group, in 48 hours after pneumococcal challenge, control 5%): 4%
Survival (number survived/total) ([2]; treatment group, control 0/9): 3/10
Mean viral lung titer ([2]; day 3): 6.8 log10
Weight Loss (% of Baseline) ([2]; day 3): 7.6 % of Baseline
Mean viral lung titer ([2]; day 3, listed as Oseltamivir): 6.84 log10
Mean viral lung titer ([2]; day 7): 5.4 log10
Weight Loss (% of Baseline) ([2]; day 7): 23 % of Baseline
Mean viral lung titer ([2]; day 7, listed as Oseltamivir): 5.42 log10
Mean bacterial lung titer [2]: 7.1 log10 CFU/ml
Mean bacterial lung titer ([2]; listed as Oseltamivir): 7.08 log10 CFU/ml
Survival (Mantel-Cox Chi-Squared test on Kaplan-Meier survival data) ([3]; oseltamivir 10 mg/kg/day BID for 5 days from 4 h before influenza, 100 TCID50 PR8 day 0, 100 CFU D39 day 7, p<0.005 vs water control): significantly prolonged; also recorded: prolongs survival
Median survival ([3]; prophylaxis group, after pneumococcal challenge, control <1 day): 7 days
Survival (number survived/total) ([3]; prophylaxis group, followed 21 days, control 0/10): 5/10
Weight lost by surviving mice, % of their day 7 weight ([3]; prophylaxis group, in 48 hours after pneumococcal challenge, control 9.5%): 7.5%
Weight Loss (% of Baseline) ([3]; day 3): 4.0 % of Baseline
Mean viral lung titer ([3]; day 3, log10/ml TCID50 in MDCK cells): 4.3 log10
Mean viral lung titer ([3]; day 3, log10/ml TCID50 in MDCK cells, listed as Oseltamivir): 4.32 log10
Weight Loss (% of Baseline) ([3]; day 7): 9 % of Baseline
Mean viral lung titer ([3]; day 7, before pneumococcal challenge, log10/ml TCID50): 3.84 log10
Weight Loss (% of Baseline) ([3]; day 7, listed as Oseltamivir): 8.7 % of Baseline
